Entries after “also recorded” stand apart in the source; their conditions may differ.
Key:
[1] = test system: preeclamptic rats (L-NAME); experiment: Blood pressure in L-NAME-induced preeclampsia model, pregnant and postpartum rats; type: in vivo, rat; conditions: for post-partum increase in blood pressure: R 5020 5 mg/animal/day; for blood pressure in the postpartum period: preeclamptic rats, L-NAME 25 mg/animal/day s.c. infusion plus cicaprost
Protocol: These symptoms are related to the decrease in vascular resistance and placental perfusion. […] Preeclampsia was induced with an nitric oxide inhibitor L-NAME (25 mg/animal/day, s.c. infusion).

L-NAME-treated male rats = experiment: L-NAME-induced hypertension in male rats; type: in vivo, rat
Protocol: (§1) FIG. 2 provides further evidence that progesterone can induce mechanisms which compensate the L-NAME-produced hypertension. This study was performed in male rats, showing pregnancy is not essential for this effect.

[2] = test system: preeclamptic rats (L-NAME); experiment: Fetal weight and fetal mortality in L-NAME-treated pregnant rats; type: in vivo, rat; conditions: iloprost plus L-NAME vs L-NAME-treated group
Text: The unexpected results of the studies described below indicate that the response of blood vessels to prostacyclins and subsequent blood pressure lowering effect is controlled by progesterone. […] These symptoms are related to the decrease in vascular resistance and placental perfusion. […] Thus, the condition of pregnancy and the progestin treatment highly increase the responsiveness of blood vessels to exogenous prostacyclin. The increased response of blood vessels results in the lowering of the effective dose of prostacyclin analogs and subsequently in the reduction of side effects.
as §1

[3] = test system: microvascular arteriolar endothelium; conditions: cited from earlier work
[4] = intravenous use; cited from earlier work
pregnant guinea pigs = experiment: Inhibition of nitric oxide synthesis during pregnancy in guinea pigs; type: in vivo, guinea pig; conditions: unreported studies
Text: There is also evidence that prostacyclin production is decreased in preeclampsia. In a normal pregnancy there is an approximately 5-10-fold increase in prostacyclin production compared to the non-pregnant state (Goodman 1982, Walsh 1985, Fitzgerald 1,987). In contrast, there is a decreased production of prostacyclin in maternal, placental and umbilical cord vessels and in placental cotyledons (Remuzzi 1980, […] 1984, Walsh 1985) in preeclampsia. An imbalance in the ratio of thromboxane A2 to prostacyclin in preeclampsia has been proposed as a major pathological mechanism in preeclampsia (Walsh 1988, Fitzgerald 1987, Friedman 1988). Other experimental studies (unreported) in pregnant rats and guinea pigs indicate that nitric oxide deficiency is the primary event in preeclampsia.

cholesterol-fed rabbits = conditions: cited from earlier work
[5] = in vivo; cited from earlier work
sheep = conditions: infusion; cited from earlier work
[6] = test system: cases of severe early-onset fetal growth retardation; conditions: 2 cases, intravenous, 4 ng/kg/min; cited from earlier work
placental blood vessels = conditions: in vitro; cited from earlier work
humans = conditions: infusion; cited from earlier work
[7] = test system: women with severe preeclampsia; conditions: cited from earlier work

Question: With `CCC(=O)[C@@]1(C)CC[C@H]2[C@@H]3CCC4=CC(=O)CCC4=C3CC[C@@]21C` [R 5020, promegestone] as the compound, how does the “post-partum increase in blood pressure” value ([1]; iloprost plus L-NAME, FIG. 4) read?
Answer: Its value is “dramatically decrease the post-partum increase in blood pressure”.

Question: And the “post-partum increase in blood pressure” value ([1]; iloprost plus L-NAME, FIG. 4, listed as R5020)?
Answer: Its value is “restores the efficacy of iloprost/cicaprost to lower blood pressure”.

Question: And the “blood pressure in the postpartum period” value ([1]; FIG. 1)?
Answer: Its value is “lowers blood pressure; also recorded: restores the postpartum decrease in the efficacy of cicaprost to lower blood pressure”.

Question: And the “blood pressure in the postpartum period” value ([1]; FIG. 1, listed as R5020)?
Answer: Its value is “restores the efficacy of iloprost/cicaprost to lower blood pressure”.

Question: What about the L-NAME-induced hypertension (L-NAME-treated male rats; male rats, 0.5 mg/animal/day s.c., FIG. 2) of the same compound?
Answer: Its L-NAME-induced hypertension is “reduces the L-NAME-induced hypertension”.

Question: What does the source list for `CC#CCC(C)[C@H](O)/C=C/[C@@H]1[C@H]2C/C(=C/CCCC(=O)O)C[C@H]2C[C@H]1O` (stereo partly shown) [iloprost]?
Answer: L-NAME-induced hypertension during pregnancy ([1]; iloprost plus L-NAME, progesterone levels high, FIG. 4): greater in late pregnancy; also recorded: fully reverses the L-NAME-induced hypertension; L-NAME-induced fetal mortality ([2]; FIG. 5 lower panel): reduces the L-NAME-induced fetal mortality; also recorded: fetal mortality decreased; L-NAME-induced fetal growth retardation (fetal weight) ([2]; FIG. 5 upper panel): partially reverses the L-NAME-induced fetal growth retardation; also recorded: fetal weight increased; damage of microvascular arteriolar endothelium by cyclosporin [3]: protect microvascular arteriolar endothelium from damage by cyclosporin; systemic blood pressure [4]: marked fall in systemic blood pressure

Question: What does the source list for `COC(=O)[C@@H](N)CCCNC(=N)N[N+](=O)[O-]` [L-NAME]?
Answer: classical symptoms hypertension, proteinuria and fetal growth retardation (pregnant guinea pigs): caused the classical symptoms hypertension, proteinuria and fetal growth retardation; signs and symptoms of preeclampsia (hypertension, proteinuria, fetal growth retardation) ([1]; pregnant rats): caused the classical symptoms hypertension, proteinuria and fetal growth retardation; also recorded: produces signs and symptoms of preeclampsia

Question: For `CCC#CC[C@H](C)[C@H](O)C#C[C@@H]1[C@H]2C/C(=C/COCC(=O)O)C[C@H]2C[C@H]1O` [cicaprost], which “blood pressure during pregnancy (prepartum)” value ([1]; cicaprost plus L-NAME, progesterone levels high, FIG. 1) is on record?
Answer: Its value is “greater in late pregnancy; also recorded: a fall in blood pressure”.

Question: What about the blood pressure postpartum ([1]; cicaprost plus L-NAME, progesterone levels low, FIG. 1) of the same compound?
Answer: Its blood pressure postpartum is “rapid increase in blood pressure; also recorded: an increase”.

Question: What about the “aortic atheromatous plaque formation” value (cholesterol-fed rabbits; oral, cholesterol-fed rabbits) of the same compound?
Answer: The value was “reduced aortic atheromatous plaque formation”.

Question: And the “hypercholesterolemia-induced impairment of endothelium-dependent relaxation” value (cholesterol-fed rabbits; oral, cholesterol-fed rabbits)?
Answer: Its value is “partially prevented hypercholesterolemia-induced impairment of endothelium-dependent relaxation”.

Question: And the “hypercholesterolemia-induced impairment of coronary vasodilatation” value (cholesterol-fed rabbits; oral, rabbits)?
Answer: Its value is “beneficial effect on the hypercholesterolemia-induced impairment of coronary vasodilatation”.

Question: And the “hypercholesterolemia-induced platelet and neutrophil hyperactivity” value (cholesterol-fed rabbits; rabbits)?
Answer: Its value is “reduced hypercholesterolemia-induced platelet and neutrophil hyperactivity”.

Question: And the bioavailability [5]?
Answer: Its bioavailability is “high bioavailability”.

Question: What about the duration of action [5] of the same compound?
Answer: The duration of action was “prolonged duration of action”.

Question: With `CC(=O)[C@H]1CC[C@H]2[C@@H]3CCC4=CC(=O)CC[C@]4(C)[C@H]3CC[C@]12C` [progesterone] as the compound, how does the blood pressure (L-NAME-treated male rats; L-NAME-treated male rats) read?
Answer: Its blood pressure is “partially lowers blood pressure”.

Question: With `CCCCC[C@H](O)/C=C/[C@@H]1[C@H]2C/C(=C/CCCC(=O)O)O[C@H]2C[C@H]1O` [prostacyclin] as the compound, how does the placental perfusion (sheep) read?
Answer: Its placental perfusion is “did not result in the increase in placental perfusion; also recorded: a decrease of placental perfusion”.

Question: And the “outcome of attempt to promote fetal growth” value [6]?
Answer: Its value is “intrauterine death in each case”.

Question: And the “relaxation of placental blood vessels” value (placental blood vessels)?
Answer: The value was “consistently relaxes placental blood vessels”.

Question: What about the placental perfusion (humans) of the same compound?
Answer: Its placental perfusion is “did not result in the increase in placental perfusion”.

Question: And the babies survived ([7]; 7 women, 4-8 ng/kg/min i.v.)?
Answer: Its babies survived is 4/7.

Question: What about the “fetal effects during treatment” value ([7]; 7 women, 4-8 ng/kg/min i.v.) of the same compound?
Answer: Its value is “Fetal bradycardia was observed; also recorded: two fetuses died during prostacyclin infusion”.

Question: And the “blood pressure during prostacyclin infusion” value ([7]; 7 women, 4-8 ng/kg/min, 5 h to 11 days)?
Answer: Its value is “rapid decrease in blood pressure”.

Question: And the uteroplacental blood flow ([7]; steal phenomenon)?
Answer: The uteroplacental blood flow was “decreased uteroplacental blood flow”.

Question: What about the systemic blood pressure [4] of the same compound?
Answer: Its systemic blood pressure is “marked fall in systemic blood pressure”.

Question: What about the duration of action [5] of the same compound?
Answer: Its duration of action is “short duration of action”.
